Read-outs that look alike come from different tables or passages of the source.
Legend:
[1] = Bi-directional Caco-2 permeability; assay type: in vitro ADME; settings: human; for Papp A→B at 90 min / Papp B→A at 90 min: Caco-2, 37° C., up to 90 minutes; for Papp A→B at 90 min: apical to basolateral, read-out: AB Papp (cm/sec × 10^6); for Papp B→A at 90 min: basolateral to apical, read-out: BA Papp (cm/sec × 10^6); for efflux ratio at 90 min: Caco-2 efflux ratio, read-out: BA/AB Ratio
Protocol: Bi-directional Caco-2 permeability was assayed. Caco-2 cells were seeded onto permeable polycarbonate supports and allowed to differentiate for about 3 weeks prior to being used in the assays. The cells were then exposed to the compounds from either the apical or basolateral sides and incubated at 37° C. for up to 90 minutes under light agitation. Compound transport was then measured using LC/MS/MS analysis at 30, 60, and 90 minutes.

[2] = Human liver microsome stability; assay type: in vitro ADME; settings: human liver microsomes
Protocol: The stability of the claimed compounds was determined in the presences of human liver microsomes. The compounds were incubated with the microsomes at 37° C. for 45 minutes. Samples were analyzed using LC-MS/MS. Data analysis included half-life, clearance rate, and the percentage of hepatic blood flow […] for each of the compounds in the different species.

[3] = Pharmacokinetic (PK) study, plasma by LC-MS; assay type: in vivo, rat; settings: po @ 80 mg/kg
Protocol: PK studies in mice were used to determine the fate of the compounds in a whole organism. Rats were treated with the compounds either orally of via IV at the indicated doses and followed for up to 24 hours. Plasma samples were taken at different time points and analyzed by LC-MS.

[4] = Caco-2, apical to basolateral, read-out: AB Recovery %
[5] = Caco-2, basolateral to apical, read-out: BA Recovery %

Row | recovery at 90 min [1, 4] | recovery at 90 min [1, 5] | Papp A→B at 90 min [1] | Papp B→A at 90 min [1] | efflux ratio at 90 min [1] | % QH (percentage of hepatic blood flow) [2] | F (%) @ 5 mg/kg ([3]; Rat Female) | F (%) @ 5 mg/kg ([3]; Rat Male) | Structure (SMILES)
1 | 61.5% | 91.5% | 3.1 ×10⁻⁶ cm/s | 15 ×10⁻⁶ cm/s | 4.8 |  |  |  | CC(C)OC(=O)N[C@@H]1CCC(c2ncc(-c3ccc(NC(=O)NCc4ccccc4)cc3S(=O)(=O)NC(C)(C)C)s2)OC1 (mixture of isomers) [Ex. 59, trans-isopropyl N-[6-[5-[4-(benzylcarbamoylamino)-2-(tert-butylsulfamoyl)phenyl]thiazol-2-yl]tetrahydropyran-3-yl]carbamate]
2 | 59.8% | 90.8% | 15.6 ×10⁻⁶ cm/s | 13.3 ×10⁻⁶ cm/s | 0.9 |  |  |  | CC(C)OC(=O)Nc1ccc(-c2cnc(C3CC[C@@H](NC(=O)OC(C)C)CO3)s2)c(S(=O)(=O)NC(C)(C)C)c1 (mixture of isomers) [Ex. 60, trans-isopropyl N-[6-[5-[2-(tert-butylsulfamoyl)-4-(isopropoxycarbonylamino)phenyl]thiazol-2-yl]tetrahydropyran-3-yl]carbamate]
3 |  |  | 3.6 ×10⁻⁶ cm/s | 10.7 ×10⁻⁶ cm/s | 3 |  |  |  | CC(C)NC(=O)OC1CCC(c2ncc(-c3ccc(NC(=O)NCc4ccccc4)cc3S(=O)(=O)NC(C)(C)C)s2)CC1 (stereo not drawn) [Ex. 21]
4 | 83.1% | 89% | 1.1 ×10⁻⁶ cm/s | 21 ×10⁻⁶ cm/s | 18.7 |  |  |  | CC(C)OC(=O)N[C@H]1CC[C@H](c2ncc(-c3ccc(NC(=O)NCc4ccncc4)cc3S(=O)(=O)NC(C)(C)C)s2)CC1 [Ex. 22, trans-isopropyl N-[4-[5-[2-(tert-butylsulfamoyl)-4-(4-pyridylmethylcarbamoylamino)phenyl]thiazol-2-yl]cyclohexyl]carbamate]
5 |  |  | 0.7 ×10⁻⁶ cm/s | 0.5 ×10⁻⁶ cm/s | 0.7 |  |  |  | CC(C)OC(=O)NC1CCC(c2ncc(-c3ccc(NC(=O)NCc4cccc(F)c4)cc3S(=O)(=O)NC(C)(C)C)s2)CC1 (stereo not drawn) [Ex. 27, isopropyl ((1r,4r)-4-(5-(2-(N-(tert-butyl)sulfamoyl)-4-(3-(3-fluorobenzyl)ureido)phenyl)thiazol-2-yl)cyclohexyl)carbamate]
6 |  |  | 1.9 ×10⁻⁶ cm/s | 3.3 ×10⁻⁶ cm/s | 1.7 |  |  |  | CC(C)OC(=O)NC1CCC(c2ncc(-c3ccc(NC(=O)NCc4ccccc4F)cc3S(=O)(=O)NC(C)(C)C)s2)CC1 (stereo not drawn) [Ex. 28, isopropyl ((1r,4r)-4-(5-(2-(N-(tert-butyl)sulfamoyl)-4-(3-(2-fluorobenzyl)ureido)phenyl)thiazol-2-yl)cyclohexyl)carbamate]
7 |  |  | 10.9 ×10⁻⁶ cm/s | 24.1 ×10⁻⁶ cm/s | 2.2 | 78.8% | 8.39% | 3.69% | CC(C)OC(=O)NC1CCC(c2ncc(-c3ccc(NC(=O)NCc4ccccn4)cc3S(=O)(=O)NC(C)(C)C)s2)CC1 (stereo not drawn) [Ex. 29, isopropyl ((1r,4r)-4-(5-(2-(N-(tert-butyl)sulfamoyl)-4-(3-(pyridin-2-ylmethyl)ureido)phenyl)thiazol-2-yl)cyclohexyl)carbamate]
8 |  |  | 11.5 ×10⁻⁶ cm/s | 15.7 ×10⁻⁶ cm/s | 1.4 |  |  |  | CC(C)OC(=O)NC1CCC(c2ncc(-c3ccc(NC(=O)N[C@H](C)c4ccccn4)cc3S(=O)(=O)NC(C)(C)C)s2)CC1 (stereo partly drawn) [Ex. 30, isopropyl ((1R,4r)-4-(5-(2-(N-(tert-butyl)sulfamoyl)-4-(3-((R)-1-(pyridin-2-yl)ethyl)ureido)phenyl)thiazol-2-yl)cyclohexyl)carbamate]
9 |  |  | 12.8 ×10⁻⁶ cm/s | 13.6 ×10⁻⁶ cm/s | 1.1 | 77.3% | 2.77% | 1.49% | CC(C)OC(=O)NC1CCC(c2ncc(-c3ccc(NC(=O)NCc4ncccc4F)cc3S(=O)(=O)NC(C)(C)C)s2)CC1 (stereo not drawn) [Ex. 31, isopropyl ((1r,4r)-4-(5-(2-(N-(tert-butyl)sulfamoyl)-4-(3-((3-fluoropyridin-2-yl)methyl)ureido)phenyl)thiazol-2-yl)cyclohexyl)carbamate]
10 |  |  | 2.2 ×10⁻⁶ cm/s | 27.4 ×10⁻⁶ cm/s | 12.5 |  |  |  | CC(C)OC(=O)N[C@@H]1CCC(c2ncc(-c3ccc(NC(=O)NCc4ccccc4)cc3S(=O)(=O)NC(C)(C)C)s2)NC1 (stereo partly drawn) [Ex. 64]
11 |  |  |  |  |  | 49.6% | 3.31% | 2.55% | CC(C)OC(=O)N[C@H]1CC[C@H](c2ncc(-c3ccc(NC(=O)NCc4ccccc4)cc3S(=O)(=O)NC(C)(C)C)s2)CC1 [Ex. 66A, trans-isopropyl N-[4-[5-[4-(benzylcarbamoylamino)-2-(tert-butylsulfamoyl)phenyl]thiazol-2-yl]cyclohexyl]carbamate]
